Assay results as given in patent publication US20240270821A1, “GIP/GLP1/GCG TRI-RECEPTOR AGONISTS AND USES THEREOF” (priority 2023, published 2024).
Where two headings read alike, the source gives them in different places. Starred links: 1 amine or outer side, 2 acyl side, 3 side chain; linkers in the order of their positions; H or OH if unused. Non-standard residues stand in square brackets, D forms with d. Residues, ends and D or L forms follow the SMILES beside them. Groups on a side chain read outwards from the residue. *: point of attachment. C18 diacid = O=C(O)CCCCCCCCCCCCCCCCC(=O)*; αMePhe(2-F) = C[C@](N)(Cc1ccccc1F)C(=O)O; γGlu = O=C(O)[C@H](CCC(=O)[*:2])N[*:1]; αMe4Pal = C[C@](N)(Cc1ccncc1)C(=O)O; αMeY = C[C@](N)(Cc1ccc(O)cc1)C(=O)O; 4Pal = N[C@@H](Cc1ccncc1)C(=O)O; αMeL = CC(C)C[C@](C)(N)C(=O)O; αMeS = C[C@](N)(CO)C(=O)O; Orn = NCCC[C@H](N)C(=O)O; AEEA = NCCOCCOCC(=O)O; Aib = CC(C)(N)C(=O)O

Key:
hGLP-1R [1] = biological target: T1, hGLP-1R (Homo sapiens, UniProt P43220); assay: Functional cAMP activity in the presence of 1% HSA; assay type: cell-based; settings: read-out: cAMP Rel EC50, hGLP-1R
T1 sequence (P43220 24-463): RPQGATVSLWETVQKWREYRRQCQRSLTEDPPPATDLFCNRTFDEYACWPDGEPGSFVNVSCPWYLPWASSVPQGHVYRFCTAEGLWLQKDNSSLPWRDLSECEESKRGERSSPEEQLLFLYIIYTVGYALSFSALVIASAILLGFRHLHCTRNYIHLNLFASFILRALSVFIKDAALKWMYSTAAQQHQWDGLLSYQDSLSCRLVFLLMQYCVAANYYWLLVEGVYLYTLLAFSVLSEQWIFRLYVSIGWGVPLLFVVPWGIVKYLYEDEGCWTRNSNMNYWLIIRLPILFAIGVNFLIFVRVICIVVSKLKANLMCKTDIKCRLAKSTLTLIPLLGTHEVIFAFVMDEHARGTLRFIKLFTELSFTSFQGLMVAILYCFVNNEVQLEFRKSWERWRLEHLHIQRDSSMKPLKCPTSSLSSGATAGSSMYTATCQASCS

in vivo [2] = assay: in vivo; design: species or system Sprague Dawley rats; settings: male, Sprague Dawley, rat, 4 mg/kg
Description: The pharmacokinetics of the exemplary analogs are evaluated following a single subcutaneous (SC) administration of 10 nmol/kg (dissolved in 40 mM Tris pH8) or single 4 mg/kg (mixed with 250 mM sodium decanoate/C10 in 40 mM Tris pH8) intrajejunal (IJ) administration to male Sprague Dawley rats. Blood samples are collected over 96 hours following SC administration and 72 hours following IJ dosing, and resulting individual plasma concentrations are used to calculate pharmacokinetic parameters. Peptide plasma (K3 EDTA) concentrations are determined using a qualified LC/MS method that measured the intact mass of the analog. Each peptide and an analog as an internal standard are extracted from rat plasma using methanol. A High Resolution Instrument was used for LC/MS detection.

hGIPR [3] = biological target: T2, hGIPR (Homo sapiens, UniProt P48546); assay: Functional cAMP activation in the presence of 0.1% casein (no HSA); assay type: cell-based; settings: read-out: Relative cAMP EC50, hGIPR;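 note: intracellular cAMP rise after 30 min at 37 °C read by HTRF against a standard curve, scaled between buffer alone (0%) and top control ligand concentration (100%), four-parameter fit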
T2 sequence (P48546 22-466): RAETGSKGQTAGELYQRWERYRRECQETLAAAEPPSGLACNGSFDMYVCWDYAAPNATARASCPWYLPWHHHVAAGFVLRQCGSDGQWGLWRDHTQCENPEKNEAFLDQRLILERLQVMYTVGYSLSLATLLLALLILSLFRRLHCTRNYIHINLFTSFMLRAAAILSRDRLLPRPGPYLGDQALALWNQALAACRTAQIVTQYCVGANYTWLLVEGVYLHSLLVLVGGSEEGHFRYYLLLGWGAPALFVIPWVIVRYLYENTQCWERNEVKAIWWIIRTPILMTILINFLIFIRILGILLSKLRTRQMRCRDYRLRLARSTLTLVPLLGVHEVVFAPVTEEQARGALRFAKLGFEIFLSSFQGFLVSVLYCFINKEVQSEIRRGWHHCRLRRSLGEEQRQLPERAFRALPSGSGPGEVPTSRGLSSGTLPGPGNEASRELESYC

hGLP-1R [4] = biological target: T1, hGLP-1R; assay: as above; assay type: cell-based; settings: read-out: Relative cAMP EC50, hGLP-1R
Description: After a 30-minute incubation at 37° C., the resulting increase in intracellular cAMP is quantitatively determined using the CisBio CAMP Dynamic 2 HTRF Assay Kit (62AM4PEJ). Briefly, cAMP levels within the cell are detected by adding the cAMP-d2 conjugate in cell lysis buffer followed by the antibody anti-cAMP-Eu^3+-Cryptate, also in cell lysis buffer.
Intracellular cAMP levels are determined by extrapolation using a standard curve. Dose response curves of compounds are plotted as the percentage of stimulation normalized to minimum (buffer only) and maximum (maximum concentration of each control ligand) values and analyzed using a four parameter non-linear regression fit with a variable slope (Genedata Screener 13). EC50 is the concentration of compound causing half-maximal simulation in a dose response curve. Each relative EC50 value for the Geometric mean calculation is determined from a curve fitting.

hGcgR = hGcgR (Homo sapiens, UniProt P47871); assay: as above; assay type: cell-based; settings: read-out: Relative cAMP EC50, hGcgR;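 note: intracellular cAMP rise after 30 min at 37 °C, read by HTRF against a cAMP standard curve, scaled from buffer only (0%) to maximal control ligand response (100%)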
Sequence of hGcgR (P47871 26-477): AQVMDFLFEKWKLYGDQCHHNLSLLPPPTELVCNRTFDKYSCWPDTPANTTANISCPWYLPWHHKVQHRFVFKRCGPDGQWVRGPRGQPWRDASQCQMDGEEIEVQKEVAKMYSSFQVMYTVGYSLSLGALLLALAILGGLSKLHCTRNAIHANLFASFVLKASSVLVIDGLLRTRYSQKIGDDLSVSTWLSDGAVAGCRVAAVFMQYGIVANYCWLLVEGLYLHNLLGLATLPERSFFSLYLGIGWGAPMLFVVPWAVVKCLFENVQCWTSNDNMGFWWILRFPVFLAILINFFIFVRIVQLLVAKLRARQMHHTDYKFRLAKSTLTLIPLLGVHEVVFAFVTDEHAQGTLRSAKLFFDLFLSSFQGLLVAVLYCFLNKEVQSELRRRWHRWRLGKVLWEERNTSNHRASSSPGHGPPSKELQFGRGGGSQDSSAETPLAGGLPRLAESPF

hGIPR [5] = biological target: T2, hGIPR; assay: Functional cAMP activity in the presence of 1% HSA; assay type: cell-based; settings: read-out: cAMP Rel EC50, hGIPR
human GcgR = human GcgR (Homo sapiens, UniProt P47871); assay: Functional cAMP activity in the presence of 1% HSA; assay type: cell-based; settings: read-out: cAMP Rel EC50, hGcgR
Sequence of human GcgR (P47871 26-477): as above

[6] = Body weight in diet-induced obese C57BL/6 mice; assay type: in vivo; settings: 10 nmol/kg SC QD, percent of starting weight, DIO mice, mean ± SEM n=5
Procedure, shortened: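 Daily weighing gave body weight as percent of starting value (mean±SEM, n=5) over 9-16 days of SC dosing, once daily or every 3 days, shortly before lights-off. Animals were weight-randomized male C57BL/6 DIO mice, 41-50 g, fed ad libitum on a calorie-rich diet.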

in vivo [7] = assay: in vivo; design: species or system cynomolgus monkeys; settings: both sexes, cynomolgus monkey, iv, 10 nmol/kg
Description: (§1) A study is designed to evaluate the oral bioavailability of Example polypeptides in cynomolgus monkeys. […] Standards and controls are prepared in cynomolgus monkey plasma, and any dilutions required to bring samples into the quantitative range are also performed in control cynomolgus monkey plasma. To control assay variability, an internal standard (IS) is added to all the standards and samples. The Examples and IS are extracted from 100% monkey plasma (50 μL) by protein precipitation using isopropyl alcohol and methanol (50:50 v/v). The samples are then centrifuged (3000 rpm for 10 minutes) and the supernatant is transferred to a Siricco Protein Precipitation Plate. The samples are loaded on a Sep-Pak tC18 SPE microelution plate that is conditioned with 2% formic acid in acetonitrile and water. The compounds are then washed with 2% formic acid in water and eluted using 2% formic acid in acetonitrile into a plate containing 5× Invitrosol and 1% formic acid in water prior to injecting an aliquot (10 μL) on to Xselect CSH C18, 3.5 μm, 2.1×20 mm for LC/MS analysis.
Blood samples are collected over 504 hours. Plasma is harvested from blood samples by centrifugation and stored frozen (−70° C.) until analysis. Plasma concentrations of the molecules are detected using the bioanalytical method described above.

[8] = Pepsin stability assay in simulated gastric fluid; assay type: in vitro ADME; settings: pH 1.2, % Intact (SD)
Procedure, shortened: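 Peptides (10 mg/mL stock in 50 mM Tris pH 8.0) incubated with pepsin A in simulated gastric fluid at 37° C. with shaking. Aliquots taken at time intervals were quenched with 100 mM ammonium bicarbonate pH 9, and intact peptide remaining was quantified by LC/MS.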

[9] = tested on: Intestinal organoid from Göttingen minipig jejunum tissue, 2D monolayer; assay: Cell based in vitro permeability (Papp) assay; assay type: in vitro ADME
Procedure, shortened: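 Papp calculated from LC/MS peptide levels in apical and basal compartments. Basal sampling at 20 min with C10 present, across monolayers grown from dissociated minipig jejunal organoids in transwells.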

human GLP1-R = human GLP1-R (Homo sapiens, UniProt P43220); assay: GLP1-R internalization assay in HEK293 cells; assay type: cell-based; settings: for EC50: HEK293 cells expressing SNAP-GLP-1R, read-out: GLP1R Internalization EC50; for Internalization % TOP: normalized to maximum concentration of GLP-1 (100%)
Sequence of human GLP1-R (P43220 24-463): as the sequence (P43220 24-463) above

in vivo [10] = assay: in vivo; design: species or system cynomolgus monkeys; settings: both sexes, cynomolgus monkey, po; for bioavailability: 10 mg; for AUC(0-inf) / CL/F / Cmax / Tmax / half-life: 300 mg
Description: as §1
[…] Blood samples are collected up to 504 hours post-dose. Plasma is harvested from blood samples by centrifugation and stored frozen (−70° C.) until analysis. Plasma concentrations of the molecules are detected using the bioanalytical method described above.

[11] = in the presence of 0.1% casein (no HSA), geometric mean
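Throughout, for Relative cAMP EC50, hGLP-1R: intracellular cAMP rise after 30 min at 37 °C read by HTRF, normalized between buffer only (0%) and maximal control ligand (100%), four-parameter variable-slope fit.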

| Compound | EC50 (hGLP-1R [1]) | CL/F (in vivo [2]) | half-life (in vivo [2]) | EC50 (hGIPR [3]; [11]) | EC50 (hGLP-1R [4]; [11]) | EC50 (hGcgR; [11]) | EC50 (hGIPR [5]) | EC50 (human GcgR) | Body weight (%) ([6]; 7 days) | Body weight (%) ([6]; 14 days) | AUC(0-inf) (in vivo [7]) | clearance (in vivo [7]) | half-life (in vivo [7]) | remaining at 0.25 h, 0.4 mg/mL [8] | Relative Papp (Compared to internal standard) [9] | EC50 (human GLP1-R) | Internalization % TOP (human GLP1-R) | EC50 (hGIPR [3]) | EC50 (hGLP-1R [4]) | EC50 (hGcgR) | further results |
| --- | --- | --- | --- | --- | --- | --- | --- | --- | --- | --- | --- | --- | --- | --- | --- | --- | --- | --- | --- | --- | --- |
| CC[C@H](C)[C@H](NC(=O)[C@H](Cc1ccccc1)NC(=O)[C@H](C)NC(=O)C(C)(C)NC(=O)[C@H](CCC(N)=O)NC(=O)[C@H](C)NC(=O)[C@H](CCCCNC(=O)COCCOCCNC(=O)CC[C@H](NC(=O)CCCCCCCCCCCCCCCCC(=O)O)C(=O)O)NC(=O)[C@H](CCCCN)NC(=O)[C@H](CC(=O)O)NC(=O)[C@H](CC(C)C)NC(=O)[C@H](CC(C)C)NC(=O)[C@@H](NC(=O)[C@H](CO)NC(=O)[C@H](Cc1ccc(O)cc1)NC(=O)[C@H](CC(=O)O)NC(=O)[C@H](CO)NC(=O)[C@@H](NC(=O)[C@](C)(Cc1ccccc1F)NC(=O)[C@@H](NC(=O)CNC(=O)[C@H](CCC(N)=O)NC(=O)C(C)(C)NC(=O)[C@@H](N)Cc1ccc(O)cc1)[C@@H](C)O)[C@@H](C)O)[C@@H](C)CC)C(=O)N[C@@H](CCC(=O)O)C(=O)N[C@@H](Cc1ccc(O)cc1)C(=O)N[C@@H](CC(C)C)C(=O)N[C@@H](CCC(=O)O)C(=O)N[C@@H](CCC(=O)O)C(=O)NCC(=O)NCC(=O)N1CCC[C@H]1C(=O)N[C@@H](CO)C(=O)N[C@@H](CO)C(=O)NCC(=O)N[C@@H](C)C(=O)N1CCC[C@H]1C(=O)N1CCC[C@H]1C(=O)N1CCC[C@H]1C(=O)N[C@@H](CO)C(N)=O [Example 387] (H-Y[Aib]QGT[αMePhe(2-F)]TSDYSILLDKK([AEEA-γGlu-C18 diacid])AQ[Aib]AFIEYLEEGGPSSGAPPPS-NH2) | 26.5 nM | 14 mL/min/kg | 9.2 h | 0.0276 nM | 0.255 nM | 2.14 nM | 5.64 nM | 184 nM | – | – | – | – | – | – | – | – | – | – | – | – | – |
| CC[C@H](C)[C@H](NC(=O)[C@H](Cc1ccccc1)NC(=O)[C@H](C)NC(=O)C(C)(C)NC(=O)[C@H](CCC(N)=O)NC(=O)[C@H](C)NC(=O)[C@H](CCCCNC(=O)COCCOCCNC(=O)CC[C@H](NC(=O)CCCCCCCCCCCCCCCCC(=O)O)C(=O)O)NC(=O)[C@H](CCCN)NC(=O)[C@H](CC(=O)O)NC(=O)[C@H](CC(C)C)NC(=O)[C@](C)(CC(C)C)NC(=O)[C@@H](NC(=O)[C@](C)(CO)NC(=O)[C@H](Cc1ccc(O)cc1)NC(=O)[C@H](CC(=O)O)NC(=O)[C@H](CO)NC(=O)[C@@H](NC(=O)[C@](C)(Cc1ccccc1F)NC(=O)[C@@H](NC(=O)CNC(=O)[C@H](CCC(N)=O)NC(=O)C(C)(C)NC(=O)[C@@H](N)Cc1c[nH]cn1)[C@@H](C)O)[C@@H](C)O)[C@@H](C)CC)C(=O)N[C@H](CCC(=O)O)C(=O)N[C@@H](Cc1ccc(O)cc1)C(=O)N[C@@H](CC(C)C)C(=O)N[C@@H](CC(C)C)C(=O)N[C@@H](CCC(=O)O)C(=O)NCC(=O)NCC(=O)N1CCC[C@H]1C(=O)N[C@@H](CO)C(=O)N[C@@H](CO)C(=O)NCC(=O)N[C@@H](CCC(=O)O)C(=O)N1CCC[C@H]1C(=O)N1CCC[C@H]1C(=O)N1CCC[C@H]1C(=O)N[C@@H](CCC(=O)O)C(N)=O [Example 381] (H-H[Aib]QGT[αMePhe(2-F)]TSDY[αMeS]I[αMeL]LD[Orn]K([AEEA-γGlu-C18 diacid])AQ[Aib]AFI[dE]YLLEGGPSSGEPPPE-NH2) | 24.5 nM | 9.83 mL/min/kg | 8.3 h | 0.0156 nM | 0.157 nM | 1.39 nM | 7.01 nM | 176 nM | – | – | – | – | – | – | – | – | – | – | – | – | – |
| H-Y[Aib]QGT[αMePhe(2-F)]TSD[4Pal][αMeS]I[αMeL]LD[Orn]K([AEEA-γGlu-C18 diacid])AQ[αMe4Pal]EFI[dE][αMeY]LIEGGPSSGAPPPSGSE-NH2 [Example 712] | 30.8 nM | – | – | – | – | – | 0.584 nM | 171 nM | 69.4 ± 0.60 % | 63.61 ± 3.73 % | 12.4 ± 0.862 µM·h | 0.0135 mL/min/kg | 54 ± 6.09 h | 92.4% | 0.60 | 35.3 nM | 109% | 0.00689 nM | 0.258 nM | 1.36 nM | remaining at 0.5 h, 0.4 mg/mL [8]: 91.4%; remaining at 1 h, 0.4 mg/mL [8]: 93.5%; bioavailability (in vivo [10]): 0.9%; AUC(0-inf) (in vivo [10]): 6.18 µM·h; CL/F (in vivo [10]): 1.85 mL/min/kg; Cmax (in vivo [10]): 124 nM; Tmax (in vivo [10]): 3.75 h; half-life (in vivo [10]): 51.8 h |
| H-Y[Aib]QGT[αMePhe(2-F)]TSD[4Pal][αMeS]I[αMeL]LD[Orn]K([AEEA-γGlu-C18 diacid])AQ[αMe4Pal]EFI[dE][αMeY]LVEGGPSSGAPPPSGS-NH2 [Example 694] | 25 nM | – | – | – | – | – | 0.787 nM | 206 nM | 71.92 ± 1.28 % | 69.77 ± 2.96 % | 10.7 ± 2.75 µM·h | 0.0163 mL/min/kg | 50.7 ± 16.8 h | 101% | 0.60 | 21.8 nM | 97.3% | 0.00781 nM | 0.253 nM | 2.04 nM | bioavailability (in vivo [10]): 2.4%; AUC(0-inf) (in vivo [10]): 14.8 µM·h; CL/F (in vivo [10]): 0.873 mL/min/kg; Cmax (in vivo [10]): 353 nM; Tmax (in vivo [10]): 3.5 h; half-life (in vivo [10]): 50.7 h |
